Results taken from US20100004284A1, “Novel Heterocyclic Compounds as Positive Allosteric Modulators of Metabotropic Glutamate Receptors” (ADDEX PHARMA SA, priority 2005, published 2010).
pEC50, pIC50: −log10 of the molar value.

Columns and labels:
mGluR5 = biological target: T1, mGluR5 (Rattus norvegicus, UniProt P31424); assay: mGluR5 binding assay ([3H]-MPEP radioligand binding, rat brain membranes); details: 3 nM [3H]-MPEP, 1 h at 4° C., read-out: IC50, inhibition of [3H]-MPEP binding
T1 construct: positive allosteric modulators of mGluR5 receptors in native preparations; endogenous in cells; host or cells: primary cortical astrocytes from Sprague-Dawley rat embryos (E16-19)
T1 sequence (P31424 21-1203): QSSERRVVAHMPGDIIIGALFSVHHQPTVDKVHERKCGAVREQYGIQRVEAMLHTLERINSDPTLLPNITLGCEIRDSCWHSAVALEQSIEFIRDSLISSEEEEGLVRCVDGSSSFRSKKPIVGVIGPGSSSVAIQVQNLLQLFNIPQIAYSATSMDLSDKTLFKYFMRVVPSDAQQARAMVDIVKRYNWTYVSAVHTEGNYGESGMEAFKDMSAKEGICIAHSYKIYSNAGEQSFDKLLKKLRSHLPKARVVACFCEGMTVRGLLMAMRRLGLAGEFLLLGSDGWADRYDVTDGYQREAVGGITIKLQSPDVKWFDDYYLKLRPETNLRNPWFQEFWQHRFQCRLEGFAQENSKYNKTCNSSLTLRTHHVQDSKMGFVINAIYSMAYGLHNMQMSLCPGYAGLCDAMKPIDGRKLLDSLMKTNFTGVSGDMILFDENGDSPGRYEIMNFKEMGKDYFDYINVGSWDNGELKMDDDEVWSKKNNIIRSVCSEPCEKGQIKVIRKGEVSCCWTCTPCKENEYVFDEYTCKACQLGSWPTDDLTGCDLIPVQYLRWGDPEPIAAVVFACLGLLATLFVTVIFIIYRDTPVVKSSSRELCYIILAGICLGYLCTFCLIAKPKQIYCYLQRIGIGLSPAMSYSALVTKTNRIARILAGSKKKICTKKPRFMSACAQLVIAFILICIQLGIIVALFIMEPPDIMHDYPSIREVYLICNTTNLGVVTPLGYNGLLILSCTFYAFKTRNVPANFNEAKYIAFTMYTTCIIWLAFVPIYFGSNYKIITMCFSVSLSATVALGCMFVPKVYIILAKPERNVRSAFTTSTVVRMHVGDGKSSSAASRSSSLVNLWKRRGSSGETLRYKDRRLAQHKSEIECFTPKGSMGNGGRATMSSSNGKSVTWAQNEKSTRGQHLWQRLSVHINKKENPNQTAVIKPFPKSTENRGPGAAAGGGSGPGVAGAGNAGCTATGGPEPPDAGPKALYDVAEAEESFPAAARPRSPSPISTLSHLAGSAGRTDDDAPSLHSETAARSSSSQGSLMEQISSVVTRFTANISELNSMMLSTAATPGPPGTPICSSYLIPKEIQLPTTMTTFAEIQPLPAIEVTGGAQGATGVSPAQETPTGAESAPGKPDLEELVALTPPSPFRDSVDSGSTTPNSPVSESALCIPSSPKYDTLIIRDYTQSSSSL
Source text: Activity of compounds of the invention was examined following a radioligand binding technique using whole rat brain and tritiated 2-methyl-6-(phenylethynyl)-pyridine ([^3H]-MPEP) as a ligand following similar methods than those described in Gasparini et al. (2002) Bioorg. Med. Chem. Lett. 12:407-409 and in Anderson et al. (2002) J. Pharmacol. Exp. Ther. 303 (3) 1044-1051.
Cortices were dissected out from brains of 200-300 g Sprague-Dawley rats (Charles River Laboratories, L'Arbresle, France). Tissues were homogenized in 10 volumes (vol/wt) of ice-cold 50 mM HEPES-NaOH (pH 7.4) using a Polytron disrupter (Kinematica AG, Luzern, Switzerland) and centrifuged for 30 min at 40,000 g. (4° C.). […] Protein concentration was determined by the Bradford method (Bio-Rad protein assay, Reinach, Switzerland) with bovine serum albumin as standard.
Membranes were thawed and resuspended in binding buffer containing 20 mM HEPES-NaOH, 3 mM MgCl2, 3 mM CaCl2, 100 mM NaCl, pH 7.4. […] Radioactivity was determined by liquid scintillation spectrometry using a 96-well plate reader (TopCount, Perkin-Elmer, Downers Grove, USA).
The inhibition curves were generated using the Prism GraphPad program (Graph Pad Software Inc, San Diego, USA). […] The mean of IC50 obtained from at least three independent experiments of selected molecules performed in duplicate were calculated.

rat mGluR5 = biological target: T2, rat mGluR5 (Rattus norvegicus, UniProt P31424); assay: mGluR5 assay on HEK-expressing rat mGluR5 (fluorescent cell based Ca2+ mobilization assay); details: HEK-293 cells stably expressing rat mGluR5; no co-addition of glutamate; mean of at least three independent experiments in duplicate; read-out: Ca++ Flux (mean EC50)
T2 construct: expressed in transfected cells
T2 sequence (P31424 21-1171 isoform P31424-2 limits assumed): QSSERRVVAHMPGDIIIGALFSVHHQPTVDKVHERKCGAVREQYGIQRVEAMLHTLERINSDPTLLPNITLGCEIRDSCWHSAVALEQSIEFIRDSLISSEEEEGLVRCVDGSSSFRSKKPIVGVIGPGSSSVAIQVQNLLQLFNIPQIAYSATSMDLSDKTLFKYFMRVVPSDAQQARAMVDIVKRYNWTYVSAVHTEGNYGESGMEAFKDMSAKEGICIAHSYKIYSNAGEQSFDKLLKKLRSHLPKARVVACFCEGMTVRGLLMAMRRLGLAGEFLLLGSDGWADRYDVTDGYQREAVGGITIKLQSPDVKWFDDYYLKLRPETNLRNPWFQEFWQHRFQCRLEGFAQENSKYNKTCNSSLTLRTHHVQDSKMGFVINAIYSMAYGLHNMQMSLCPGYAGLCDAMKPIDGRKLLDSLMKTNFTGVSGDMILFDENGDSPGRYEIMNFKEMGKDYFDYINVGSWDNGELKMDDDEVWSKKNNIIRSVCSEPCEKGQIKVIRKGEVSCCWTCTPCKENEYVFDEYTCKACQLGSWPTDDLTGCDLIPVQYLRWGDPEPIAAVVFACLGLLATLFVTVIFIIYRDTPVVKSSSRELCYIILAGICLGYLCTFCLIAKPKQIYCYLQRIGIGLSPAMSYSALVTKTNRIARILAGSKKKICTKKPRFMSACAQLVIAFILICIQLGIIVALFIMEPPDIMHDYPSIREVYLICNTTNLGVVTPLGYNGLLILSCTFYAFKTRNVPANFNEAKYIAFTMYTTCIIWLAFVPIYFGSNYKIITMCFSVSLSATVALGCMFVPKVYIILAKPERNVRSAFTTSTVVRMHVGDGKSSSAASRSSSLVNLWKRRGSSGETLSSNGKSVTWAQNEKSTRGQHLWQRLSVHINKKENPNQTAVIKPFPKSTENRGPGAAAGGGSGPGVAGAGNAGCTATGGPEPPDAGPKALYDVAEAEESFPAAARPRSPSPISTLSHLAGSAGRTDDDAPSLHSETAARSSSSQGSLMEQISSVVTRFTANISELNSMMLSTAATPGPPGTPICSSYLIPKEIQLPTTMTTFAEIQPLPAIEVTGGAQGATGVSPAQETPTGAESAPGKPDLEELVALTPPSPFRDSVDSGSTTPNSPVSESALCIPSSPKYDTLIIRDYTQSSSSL
Description: Positive functional expression of HEK-293 cells stably expressing rat mGluR5 receptor was determined by measuring intracellular Ca^2+ changes using a Fluorometric Imaging Plate Reader (FLIPR, Molecular Devices, Sunnyvale, Calif.) in response to glutamate or selective known mGluR5 agonists and antagonists. Rat mGluR5RT-PCR products in HEK-293 cells were sequenced and found 100% identical to rat mGluR5Genbank reference sequence (NM_017012). HEK-293 cells expressing rmGluR5 were maintained in media containing DMEM, dialyzed Fetal Bovine Serum (10%), Glutamax™ (2 mM), Penicillin (100 units/ml), Streptomycin (100 μg/ml), Geneticin (100 μg/ml) and Hygromycin-B (40 μg/ml) at 37° C./5% CO2.
After one day of incubation, cells were washed with assay buffer containing: 142 mM NaCl, 6 mM KCl, 1 mM […], 1 mM CaCl2, 20 mM HEPES, 1 g/L glucose, 0.125 mM sulfinpyrazone, pH 7.4. After 60 min of loading with 4 uM Fluo-4 (TefLabs, Austin, Tex.), the cells were washed three times with 50 μl of PBS Buffer and resuspended in 45 μl of assay Buffer. The plates were then transferred to a Fluorometric Imaging Plate Reader (FLIPR, Molecular Devices, Sunnyvale, Calif.) for the assessment of intracellular calcium flux. After monitoring the baseline fluorescence for 10 seconds, increasing concentrations of representative compound (from 0.01 to 60 μM) of the present invention diluted in Assay Buffer (15 μl of 4× dilutions) was added to the cell. The final DMSO concentration in the assay was 0.3%. In each experiment, fluorescence was then monitored as a function of time for 3 minutes and the data analyzed using Microsoft Excel and GraphPad Prism. Each data point was also measured two times.
Under these experimental conditions, this HEK-rat mGluR5 cell line is able to directly detect positive allosteric modulators without the need of co-addition of glutamate or mGluR5 agonist.
The concentration-response curves of representative compounds of the present invention were generated using the Prism GraphPad software (Graph Pad Inc, San Diego, USA). The curves were fitted to a four-parameter logistic equation:
(Y=Bottom+(Top−Bottom)/(1+10̂((Log EC50−X)*Hill Slope)
allowing determination of EC50 values.
The Table 5 below represents the mean EC50 obtained from at least three independent experiments of selected molecules performed in duplicate.

pIC50 (mGluR5): > 4.52
pEC50 (rat mGluR5): > 6.00
Compound: O=C(c1ccc(F)cc1)N1CCC[C@H](c2nc(Cc3ccc(F)cc3)no2)C1 [Example 1, {(S)-3-[3-(4-Fluoro-benzyl)-[1,2,4]oxadiazol-5-yl]-piperidin-1-yl}-(4-fluoro-phenyl)-methanone]
